Where a name gives a salt, the structure may show the parent alone.
Legend:
JAK3 tyrosine kinase = target: T1, JAK3 tyrosine kinase (Homo sapiens, UniProt P52333); experiment: Test 1: inhibitory activity to JAK3 tyrosine kinase (ELISA); type: biochemical; conditions: 25 μM ATP in substrate solution, 30° C. for 1 hour, n=2
T1 construct: purchased Carnabioscience Co
T1 sequence (P52333 1-1124): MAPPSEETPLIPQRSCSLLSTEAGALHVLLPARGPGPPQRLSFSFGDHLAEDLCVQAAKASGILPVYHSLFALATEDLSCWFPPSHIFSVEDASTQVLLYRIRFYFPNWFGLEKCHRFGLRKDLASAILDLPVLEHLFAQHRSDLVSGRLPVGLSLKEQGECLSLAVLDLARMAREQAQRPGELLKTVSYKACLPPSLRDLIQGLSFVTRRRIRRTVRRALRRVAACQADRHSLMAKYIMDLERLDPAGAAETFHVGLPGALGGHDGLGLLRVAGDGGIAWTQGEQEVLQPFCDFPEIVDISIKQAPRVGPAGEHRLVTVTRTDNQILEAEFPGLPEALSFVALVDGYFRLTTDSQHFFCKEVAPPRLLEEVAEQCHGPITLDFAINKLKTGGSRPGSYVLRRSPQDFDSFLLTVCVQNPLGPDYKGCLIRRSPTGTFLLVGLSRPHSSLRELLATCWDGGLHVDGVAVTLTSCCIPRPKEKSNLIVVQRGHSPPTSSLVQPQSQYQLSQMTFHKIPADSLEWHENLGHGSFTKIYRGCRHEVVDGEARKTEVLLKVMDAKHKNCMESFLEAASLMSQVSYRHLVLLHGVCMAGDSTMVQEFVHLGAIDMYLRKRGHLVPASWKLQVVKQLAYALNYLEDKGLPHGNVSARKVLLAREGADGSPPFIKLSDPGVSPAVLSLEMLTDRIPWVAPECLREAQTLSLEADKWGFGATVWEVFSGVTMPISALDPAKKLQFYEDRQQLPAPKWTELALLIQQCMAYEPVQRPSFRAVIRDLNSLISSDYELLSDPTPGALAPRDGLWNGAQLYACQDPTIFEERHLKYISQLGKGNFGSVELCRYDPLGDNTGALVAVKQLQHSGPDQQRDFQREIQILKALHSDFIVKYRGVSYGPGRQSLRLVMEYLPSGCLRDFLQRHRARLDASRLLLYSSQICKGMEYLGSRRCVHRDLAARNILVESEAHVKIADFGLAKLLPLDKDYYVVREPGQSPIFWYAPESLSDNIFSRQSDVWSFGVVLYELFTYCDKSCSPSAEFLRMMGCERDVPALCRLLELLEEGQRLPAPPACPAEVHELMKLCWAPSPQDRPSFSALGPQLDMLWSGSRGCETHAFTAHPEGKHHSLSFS
Procedure, shortened: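 ELISA of JAK3 kinase activity with absorbance read at 450 nm. Compounds were tested from DMSO dilution series at 100-fold the measurement concentrations (1000–0.01 μM), diluted up to 20 times in assay buffer, against a DMSO negative control. IC50 was estimated by non-linear regression of absorbance.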

JAK2 tyrosine kinase = target: T2, JAK2 tyrosine kinase (Homo sapiens, UniProt O60674); experiment: Test 1: inhibitory activity to JAK2 tyrosine kinase (ELISA); type: biochemical; conditions: 25 μM ATP in substrate solution, 30° C. for 1 hour, n=2
T2 construct: purchased Carnabioscience Co
T2 sequence (O60674 whole entry): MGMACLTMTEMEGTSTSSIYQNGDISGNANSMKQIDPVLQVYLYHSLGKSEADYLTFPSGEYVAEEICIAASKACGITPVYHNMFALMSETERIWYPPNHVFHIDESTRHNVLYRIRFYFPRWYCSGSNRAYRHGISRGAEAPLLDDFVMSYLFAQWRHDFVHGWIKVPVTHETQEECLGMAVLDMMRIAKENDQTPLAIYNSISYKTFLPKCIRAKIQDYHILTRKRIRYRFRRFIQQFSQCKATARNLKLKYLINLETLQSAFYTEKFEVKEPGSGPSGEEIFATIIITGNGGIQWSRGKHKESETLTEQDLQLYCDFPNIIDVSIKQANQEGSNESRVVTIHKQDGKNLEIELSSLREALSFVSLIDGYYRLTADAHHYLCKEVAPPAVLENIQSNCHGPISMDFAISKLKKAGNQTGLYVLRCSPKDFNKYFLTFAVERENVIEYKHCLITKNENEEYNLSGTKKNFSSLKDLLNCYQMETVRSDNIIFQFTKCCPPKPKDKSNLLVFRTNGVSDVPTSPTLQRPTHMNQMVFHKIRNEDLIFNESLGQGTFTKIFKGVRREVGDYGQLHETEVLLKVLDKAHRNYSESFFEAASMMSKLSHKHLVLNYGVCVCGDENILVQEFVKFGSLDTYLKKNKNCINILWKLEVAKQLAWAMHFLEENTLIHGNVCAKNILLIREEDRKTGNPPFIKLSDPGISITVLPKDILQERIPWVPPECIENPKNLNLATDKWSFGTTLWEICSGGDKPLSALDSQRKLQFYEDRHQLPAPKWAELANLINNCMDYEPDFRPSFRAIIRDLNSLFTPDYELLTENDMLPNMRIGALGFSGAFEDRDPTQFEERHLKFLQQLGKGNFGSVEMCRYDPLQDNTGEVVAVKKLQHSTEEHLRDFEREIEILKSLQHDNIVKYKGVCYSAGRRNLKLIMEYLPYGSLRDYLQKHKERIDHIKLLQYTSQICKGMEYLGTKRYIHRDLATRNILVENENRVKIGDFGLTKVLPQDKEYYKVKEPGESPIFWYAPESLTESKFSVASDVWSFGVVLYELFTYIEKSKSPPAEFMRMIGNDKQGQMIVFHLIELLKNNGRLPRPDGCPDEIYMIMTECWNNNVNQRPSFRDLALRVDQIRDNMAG
Procedure, shortened: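 Human JAK2 (diluted to 0.75 nM before addition) phosphorylated a biotinylated peptide on streptavidin plates for 1 h at 30 °C. The substrate mix held 625 nM peptide, 25 μM ATP and 25 mM MgCl2 in 15 mM Tris pH 7.5, 0.01% Tween-20 and 1 mM DTT. Phosphotyrosine was detected by HRP antibody/TMB at 450 nm, and IC50 was obtained by non-linear regression; duplicates were run.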

Row | IC50 (JAK3 tyrosine kinase) [nM] | IC50 (JAK2 tyrosine kinase) [nM] | SMILES
1 | 500 | 3 | CCCCNC(=O)c1cc(Nc2cnccn2)nc(N[C@@H](C)c2ccc(F)cc2)c1 [Example 169, (S)—N-Butyl-2-[1-(4-fluorophenyl)ethylamino]-6-(pyrazin-2-ylamino) isonicotinamide]
2 | 160 | 2 | C[C@H](Nc1nc(Nc2cnccn2)cc(-c2cncnc2)n1)c1ccc(F)cc1 [Example 52, (S)—N^2-[1-(4-Fluorophenyl)ethyl]-N^6-(pyrazin-2-yl)-4,5′-bipyrimidine-2,6-diamine]
3 | 86 | 5.6 | COC1(C2CC2)CN(c2cc(Nc3cnccn3)nc(N[C@@H](C)c3ccc(F)cc3)c2)C1 [Example 211, (S)-4-(3-Cyclopropyl-3-methoxyazetidin-1-yl)-N^2-[1-(4-fluorophenyl)ethyl]-N^6-(pyrazin-2-yl)pyridine-2,6-diamine hydrochloride]
4 | 310 | 3.4 | C[C@H](Nc1cc(N2CCSCC2)cc(Nc2cnccn2)n1)c1ccc(F)cc1 [Example 40, (S)—N^2-[1-(4-Fluorophenyl)ethyl]-N^6-(pyrazin-2-yl)-4-thiomorpholinopyridine-2,6-diamine]
5 | 97 | 1.4 | C[C@H](Nc1nc(Nc2cnccn2)cc(-c2cccc(C(N)=O)c2)n1)c1ccc(F)cc1 [Example 91]
6 | 48 | 1.3 | C[C@H](Nc1nc(Nc2cnccn2)cc(N2CCCC(O)C2)n1)c1ccc(F)cc1 (stereo partly drawn) [Example 73, 1-{2-[(S)-1-(4-Fluorophenyl)ethylamino]-6-(pyrazin-2-ylamino)pyrimidin-4-yl}piperidin-3-ol hydrochloride]
7 | 71 | 1.3 | C[C@H](Nc1nc(Nc2cnccn2)cc(-c2cccnc2)n1)c1ccc(F)cc1 [Example 13, (S)—N^2-[1-(4-Fluorophenyl)ethyl]-N^4-(pyrazin-2-yl)-6-(pyridin-3-yl)pyrimidine-2,4-diamine]
8 | 220 | 7 | C[C@H](Nc1nc(Nc2cnccn2)cc(N2CCC[C@H]2C(N)=O)n1)c1ccc(F)cc1 [Example 64, (S)-1-{2-[(S)-1-(4-Fluorophenyl)ethylamino]-6-(pyrazin-2-ylamino)pyrimidin-4-yl}pyrrolidin-2-carboxamide hydrochloride]
9 | 630 | 8.8 | C[C@H](Nc1cc(-c2ccc(S(N)(=O)=O)cc2)cc(Nc2cnccn2)n1)c1ccc(F)cc1 [Example 126, (S)-4-{2-[1-(4-Fluorophenyl)ethylamino]-6-(pyrazin-2-ylamino)pyridin-4-yl}benzenesulfonamide]
10 | 20 | 1.1 | C[C@H](Nc1nc(Nc2cnccn2)cc(N2CC(NC(N)=O)C2)n1)c1ccc(F)cc1 [Example 227, (S)-1-(1-{2-[1-(4-Fluorophenyl)ethylamino]-6-(pyrazin-2-ylamino)pyrimidin-4-yl}azetidin-3-yl)urea]
11 | 82 | 1.3 | C[C@H](Nc1nc(Nc2cnccn2)cc(-c2ccc(C(N)=O)nc2)n1)c1ccc(F)cc1 [Example 57, (S)-5-{2-[1-(4-Fluorophenyl)ethylamino]-6-(pyrazin-2-ylamino)pyrimidin-4-yl}picolinamide]
12 | 140 | 5.8 | C[C@H](Nc1cc(N2CC(N3CCOCC3)C2)cc(Nc2cnccn2)n1)c1ccc(F)cc1 [Example 233, (S)—N^2-[1-(4-Fluorophenyl)ethyl]-4-[3-morpholinoazetidin-1-yl]-N^6-(pyrazin-2-yl)pyridine-2,6-diamine]
13 | 95 | 0.89 | C[C@H](Nc1nc(Nc2cnccn2)cc(-c2ccc(S(C)(=O)=O)cc2)n1)c1ccc(F)cc1 [Example 10, (S)—N^2-[1-(4-Fluorophenyl)ethyl]-6-[4-(methylsulfonyl)phenyl]-N^4-(pyrazin-2-yl)pyrimidine-2,4-diamine hydrochloride]
14 | 60 | 1.1 | C[C@H](Nc1nc(Nc2cnccn2)cc(-c2ccc(C(N)=O)cc2)n1)c1ccc(F)cc1 [Example 80, (S)-4-{2-[1-(4-Fluorophenyl)ethylamino]-6-(pyrazin-2-ylamino)pyrimidin-4-yl}benzamide hydrochloride]
15 | 69 | 2.6 | COCn1cc(-c2cc(Nc3cnccn3)nc(N[C@@H](C)c3ccc(F)cc3)c2)cn1 [Example 219, (S)—N^2-[1-(4-Fluorophenyl)ethyl]-4-[1-(methoxymethyl)-1H-pyrazol-4-yl]-N^6-(pyrazin-2-yl)pyridine-2,6-diamine]
16 | 68 | 0.5 | C[C@H](Nc1nc(Nc2cnccn2)cc(-c2cccnc2)n1)c1ccc(F)cc1 [Example 32, (S)—N^2-[1-(4-Fluorophenyl)ethyl]-N^4-(pyrazin-2-yl)-6-(pyridin-3-yl)pyrimidine-2,4-diamine ½ maleate]
17 | 440 | 7.1 | C[C@H](Nc1cc(NS(C)(=O)=O)cc(Nc2cnccn2)n1)c1ccc(F)cc1 [Example 209, (S)—N-{2-[1-(4-Fluorophenyl)ethylamino]-6-(pyrazin-2-ylamino)pyridin-4-yl}methanesulfonamide hydrochloride]
18 | 300 | 7 | C[C@H](Nc1cc(N2CC(F)(F)C2)cc(Nc2cnccn2)n1)c1ccc(F)cc1 [Example 207, (S)-4-(3,3-Difluoroazetidin-1-yl)-N^2-[1-(4-fluorophenyl)ethyl]-N^6-(pyrazin-2-yl)pyridine-2,6-diamine hydrochloride]
19 | 52 | 2.5 | CCNC(=O)C1CN(c2cc(Nc3cnccn3)nc(N[C@@H](C)c3ccc(F)cc3)n2)C1 [Example 180, (S)—N-Ethyl-1-{2-[1-(4-fluorophenyl)ethylamino]-6-(pyrazin-2-ylamino)pyrimidin-4-yl}azetidine-3-carboxamide]
20 | 49 | 1.4 | CCC(=O)Nc1cc(Nc2cnccn2)nc(N[C@@H](C)c2ccc(F)cc2)c1 [Example 216, (S)—N-{2-[1-(4-Fluorophenyl)ethylamino]-6-(pyrazin-2-ylamino)pyridin-4-yl}propionamide]
21 | 100 | 1.4 | CC(=O)Nc1cc(Nc2cnccn2)nc(N[C@@H](C)c2ccc(F)cc2)c1 [Example 208, (S)—N-{2-[1-(4-Fluorophenyl)ethylamino]-6-(pyrazin-2-ylamino)pyridin-4-yl}acetamide]
22 | 460 | 9.8 | C[C@H](Nc1nc(Nc2cnccn2)cc(-c2ccc3c(c2)OCO3)n1)c1ccc(F)cc1 [Example 92, (S)-6-(Benzo[d]1,3-dioxol-5-yl)-N^2-[1-(4-fluorophenyl)ethyl]-N^4-(pyrazin-2-yl)pyrimidine-2,4-diamine hydrochloride]
23 | 170 | 2.7 | Cc1cc(Nc2cnccn2)nc(N[C@@H](C)c2ccc(F)cc2)c1 [Example 121, (S)—N^2-[1-(4-Fluorophenyl)ethyl]-4-methyl-N^6-(pyrazin-2-yl)pyridine-2,6-diamine hydrochloride]
24 | 190 | 2.7 | C[C@H](Nc1cccc(Nc2cnccn2)n1)c1ccc(F)cc1 [Example 117, (S)—N^2-[1-(4-Fluorophenyl)ethyl]-N^6-(pyrazin-2-yl)pyridine-2,6-diamine dihydrochloride]
25 | 310 | 4.1 | C[C@H](Nc1nc(NCc2ccco2)cc(Nc2cnccn2)n1)c1ccc(F)cc1 [Example 103, (S)—N^2-[1-(4-Fluorophenyl)ethyl]-N^4-(furan-2-ylmethyl)-N^6-(pyrazin-2-yl)pyrimidine-2,4,6-triamine hydrochloride]
26 | 37 | 0.73 | C[C@H](Nc1nc(NCCNS(C)(=O)=O)cc(Nc2cnccn2)n1)c1ccc(F)cc1 [Example 77, (S)—N-(2-{2-[1-(4-Fluorophenyl)ethylamino]-6-(pyrazin-2-ylamino)pyrimidin-4-ylamino}ethyl)methanesulfonamide hydrochloride]

— patent US8586591B2, “Aminopyrazine derivative and medicine” (Nippon Shinyaku Co., Ltd., priority 2009, dated 2013)
